In patent publication US12685726B2, “Sulfoximines as inhibitors of NaV1.8” (Gruenenthal GmbH, priority 2022, dated 2026):

Biological target: T1, human NaV 1.8 (Homo sapiens, UniProt Q9Y5Y9)
T1 construct: expressed in transfected cells; host or cells: HEK (recombinant cell line)
Experiment: Automated whole-cell patch clamp (Qube384) voltage-clamp recordings of sodium currents in HEK-NaV1.8 cell line
Assay type: cell-based
Settings: read-out: Potency category (human NaV 1.8 IC50)
Summary of the method: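 HEK cells expressing NaV1.8 with b3, whole-cell automated voltage clamp at room temperature or 19° C.; CsF-based internal, pH 7.4 external. State-dependent (−120 mV, V1/2 4 s, −10 mV test pulses) and 10/20 Hz 40-pulse protocols; ~12 min compound, vehicle-corrected, IC50 by 4-parameter logistic fit.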

T1 sequence (Q9Y5Y9 whole entry): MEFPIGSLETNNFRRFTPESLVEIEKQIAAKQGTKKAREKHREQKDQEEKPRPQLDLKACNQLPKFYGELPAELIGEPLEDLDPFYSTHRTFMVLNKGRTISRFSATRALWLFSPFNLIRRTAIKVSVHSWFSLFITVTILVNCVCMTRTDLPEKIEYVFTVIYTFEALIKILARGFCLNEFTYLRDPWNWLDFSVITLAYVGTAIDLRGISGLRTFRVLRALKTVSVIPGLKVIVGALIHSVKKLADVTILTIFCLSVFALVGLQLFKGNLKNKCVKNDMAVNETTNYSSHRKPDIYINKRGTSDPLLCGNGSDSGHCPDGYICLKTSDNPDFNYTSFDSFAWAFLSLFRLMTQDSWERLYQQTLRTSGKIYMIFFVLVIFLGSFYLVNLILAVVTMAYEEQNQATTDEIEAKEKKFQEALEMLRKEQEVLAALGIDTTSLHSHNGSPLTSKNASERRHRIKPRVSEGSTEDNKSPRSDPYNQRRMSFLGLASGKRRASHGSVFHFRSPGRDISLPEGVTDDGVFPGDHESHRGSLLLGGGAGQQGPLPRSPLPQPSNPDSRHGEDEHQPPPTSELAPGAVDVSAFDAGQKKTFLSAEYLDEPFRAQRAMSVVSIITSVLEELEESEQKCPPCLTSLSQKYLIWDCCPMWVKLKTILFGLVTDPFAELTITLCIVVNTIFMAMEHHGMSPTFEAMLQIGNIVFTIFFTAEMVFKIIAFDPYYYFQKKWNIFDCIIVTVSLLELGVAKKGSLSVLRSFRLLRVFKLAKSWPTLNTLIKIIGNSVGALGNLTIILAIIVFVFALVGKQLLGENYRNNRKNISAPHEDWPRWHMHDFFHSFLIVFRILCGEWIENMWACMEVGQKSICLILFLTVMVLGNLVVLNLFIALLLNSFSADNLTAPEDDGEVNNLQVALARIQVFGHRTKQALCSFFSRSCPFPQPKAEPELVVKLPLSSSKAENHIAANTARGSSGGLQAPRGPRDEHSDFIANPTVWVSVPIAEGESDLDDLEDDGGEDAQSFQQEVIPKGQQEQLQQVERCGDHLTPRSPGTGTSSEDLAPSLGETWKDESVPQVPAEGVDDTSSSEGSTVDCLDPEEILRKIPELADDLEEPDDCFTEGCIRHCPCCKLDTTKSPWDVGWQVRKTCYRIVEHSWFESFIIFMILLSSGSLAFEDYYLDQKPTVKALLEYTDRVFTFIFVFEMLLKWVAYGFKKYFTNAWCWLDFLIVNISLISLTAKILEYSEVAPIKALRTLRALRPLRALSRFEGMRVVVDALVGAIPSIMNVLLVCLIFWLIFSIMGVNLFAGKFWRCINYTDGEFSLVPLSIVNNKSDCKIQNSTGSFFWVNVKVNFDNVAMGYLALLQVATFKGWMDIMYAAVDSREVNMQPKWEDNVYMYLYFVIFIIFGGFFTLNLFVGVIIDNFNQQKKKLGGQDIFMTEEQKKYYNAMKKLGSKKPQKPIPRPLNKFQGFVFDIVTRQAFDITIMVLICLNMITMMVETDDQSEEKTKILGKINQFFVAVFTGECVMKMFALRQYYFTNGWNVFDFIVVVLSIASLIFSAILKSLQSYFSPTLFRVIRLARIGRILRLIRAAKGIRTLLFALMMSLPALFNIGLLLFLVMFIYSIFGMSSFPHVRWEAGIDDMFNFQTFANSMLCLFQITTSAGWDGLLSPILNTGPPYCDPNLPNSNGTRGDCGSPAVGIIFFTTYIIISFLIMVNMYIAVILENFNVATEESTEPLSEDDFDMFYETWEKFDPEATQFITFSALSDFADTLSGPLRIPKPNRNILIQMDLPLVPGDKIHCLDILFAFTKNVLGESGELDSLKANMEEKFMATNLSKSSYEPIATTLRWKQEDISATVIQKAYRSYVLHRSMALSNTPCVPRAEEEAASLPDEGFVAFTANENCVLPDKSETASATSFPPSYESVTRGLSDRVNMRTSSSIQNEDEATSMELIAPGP

IC50 [nM] | SMILES
≤ 100 | COC1(c2nn(CC3(C)CC(F)(F)C3)c(C(=O)Nc3ccnc(S(C)(=N)=O)c3)c2C(F)(F)F)CC1 (single isomer, unassigned) [Example 71b, 1-((3,3-difluoro-1-methylcyclobutyl)methyl)-3-(1-methoxycyclopropyl)-N-(2-(S-methylsulfonimidoyl)pyridin-4-yl)-4-(trifluoromethyl)-1H-pyrazole-5-carboxamide]
≤ 100 | Cc1cc(NC(=O)c2c(C(F)(F)F)c(C3CC3)nn2CC2(C)CC(F)(F)C2)cc(S(C)(=N)=O)n1 (single isomer, unassigned) [Example 50a, 3-cyclopropyl-1-((3,3-difluoro-1-methylcyclobutyl)methyl)-N-(2-methyl-6-(S-methylsulfonimidoyl)pyridin-4-yl)-4-(trifluoromethyl)-1H-pyrazole-5-carboxamide]
≤ 100 | CC1(Cn2nc(C3CC(F)(F)C3)c(C(F)(F)F)c2C(=O)Nc2ccnc(S(C)(=N)=O)c2)CC(F)(F)C1 (single isomer, unassigned) [Example 57b, 1-((3,3-Difluoro-1-methylcyclobutyl)methyl)-3-(3,3-difluorocyclobutyl)-N-(2-(S-methylsulfonimidoyl)pyridin-4-yl)-4-(trifluoromethyl)-1H-pyrazole-5-carboxamide]
≤ 100 | CC1(Cn2nc(C3CC3F)c(C(F)(F)F)c2C(=O)Nc2ccnc(S(C)(=N)=O)c2)CC(F)(F)C1 (racemic) [Example 62a, 1-((3,3-Difluoro-1-methylcyclobutyl)methyl)-3-(2-fluorocyclopropyl)-N-(2-(S-methylsulfonimidoyl)pyridin-4-yl)-4-(trifluoromethyl)-1H-pyrazole-5-carboxamide]
≤ 100 | CC1(Cn2nc(C34CC(F)(C3)C4)c(C(F)F)c2C(=O)Nc2cccc(S(C)(=N)=O)c2)CC(F)(F)C1 (single isomer, unassigned) [Example 113a, 1-((3,3-Difluoro-1-methylcyclobutyl)methyl)-4-(difluoromethyl)-3-(3-fluorobicyclo[1.1.1]pentan-1-yl)-N-(3-(S-methylsulfonimidoyl)phenyl)-1H-pyrazole-5-carboxamide]
≤ 100 | CS(=N)(=O)c1cc(NC(=O)c2c(C(F)(F)F)c(C3CC3)nn2CC23CC2CC(F)(F)C3)ccn1 (single isomer, unassigned) [Example 95b, 3-Cyclopropyl-1-((3,3-difluorobicyclo[3.1.0]hexan-1-yl)methyl)-N-(2-(S-methylsulfonimidoyl)pyridin-4-yl)-4-(trifluoromethyl)-1H-pyrazole-5-carboxamide]
≤ 100 | CC1(Cn2nc(C3(F)CC3)c(C(F)(F)F)c2C(=O)Nc2ccc(F)c(S(C)(=N)=O)c2)CC(F)(F)C1 (single isomer, unassigned) [Example 126a, 1-((3,3-Difluoro-1-methylcyclobutyl)methyl)-N-(4-fluoro-3-(S-methylsulfonimidoyl)phenyl)-3-(1-fluorocyclopropyl)-4-(trifluoromethyl)-1H-pyrazole-5-carboxamide]
≤ 100 | C[C@@]1(Cn2nc(C3CC3)c(C(F)(F)F)c2C(=O)Nc2ccnc([S@](C)(=N)=O)c2)CC(F)(F)C12CC2 (single isomer, unassigned) [Example 92c, 3-cyclopropyl-1-((6,6-difluoro-4-methylspiro[2.3]hexan-4-yl)methyl)-N-(2-(S-methylsulfonimidoyl)pyridin-4-yl)-4-(trifluoromethyl)-1H-pyrazole-5-carboxamide]
≤ 100 | CC1(Cn2nc(C3(C#N)CC3)c(C(F)(F)F)c2C(=O)Nc2ccnc(S(C)(=N)=O)c2)CC(F)(F)C1 (single isomer, unassigned) [Example 68a, 3-(1-cyanocyclopropyl)-1-((3,3-difluoro-1-methylcyclobutyl)methyl)-N-(2-(S-methylsulfonimidoyl)pyridin-4-yl)-4-(trifluoromethyl)-1H-pyrazole-5-carboxamide]
100 to 1000 | CS(=N)(=O)c1cc(NC(=O)c2c(C(F)(F)F)c(C3CC3)nn2CC23CC(F)(C2)C3)ccn1 (single isomer, unassigned) [Example 25b, 3-cyclopropyl-1-((3-fluorobicyclo[1.1.1]pentan-1-yl)methyl)-N-(2-(S-methylsulfonimidoyl)pyridin-4-yl)-4-(trifluoromethyl)-1H-pyrazole-5-carboxamide]
≤ 100 | CS(=N)(=O)c1cc(NC(=O)c2c(C(F)(F)F)c(C3CC3)nn2CC23CC(F)(C2)C3)ccn1 (single isomer, unassigned) [Example 25a, 3-cyclopropyl-1-((3-fluorobicyclo[1.1.1]pentan-1-yl)methyl)-N-(2-(S-methylsulfonimidoyl)pyridin-4-yl)-4-(trifluoromethyl)-1H-pyrazole-5-carboxamide]
≤ 100 | C[S@](=N)(=O)c1cccc(NC(=O)c2c(C(F)(F)F)c(C3(F)CC3)nn2CC2C[C@H]2C(F)(F)F)c1 (single isomer, unassigned) [Example 134d, 3-(1-Fluorocyclopropyl)-N-(3-(S-methylsulfonimidoyl)phenyl)-4-(trifluoromethyl)-1-(((trans)-2-(trifluoromethyl)cyclopropyl)methyl)-1H-pyrazole-5-carboxamide]
1000 to 10000 | CS(=N)(=O)c1cc(NC(=O)c2c(C(F)(F)F)c(C3CC3)nn2CC2CCC23CNC3)ccn1 (single isomer, unassigned) [Example 153a, 1-((2-Azaspiro[3.3]heptan-5-yl)methyl)-3-cyclopropyl-N-(2-(S-methylsulfonimidoyl)pyridin-4-yl)-4-(trifluoromethyl)-1H-pyrazole-5-carboxamide]
≤ 100 | C[C@@H]1C[C@H]1c1nn(CC2(C)CC(F)(F)C2)c(C(=O)Nc2ccnc([S@](C)(=N)=O)c2)c1C(F)(F)F (single isomer, unassigned) [Example 65c, 1-((3,3-Difluoro-1-methylcyclobutyl)methyl)-3-((trans)-2-methylcyclopropyl)-N-(2-(S-methylsulfonimidoyl)pyridin-4-yl)-4-(trifluoromethyl)-1H-pyrazole-5-carboxamide]
≤ 100 | COC12CC(c3nn(CC4(C)CC(F)(F)C4)c(C(=O)Nc4ccnc(S(C)(=N)=O)c4)c3C(F)(F)F)(C1)C2 (centres unmarked) [Example 122, 1-((3,3-Difluoro-1-methylcyclobutyl)methyl)-3-(3-methoxybicyclo[1.1.1]pentan-1-yl)-N-(2-(S-methylsulfonimidoyl)pyridin-4-yl)-4-(trifluoromethyl)-1H-pyrazole-5-carboxamide]
≤ 100 | CC1(Cn2nc(C3CCCC3)c(C(F)(F)F)c2C(=O)Nc2ccnc(S(C)(=N)=O)c2)CC(F)(F)C1 (single isomer, unassigned) [Example 59a, 3-Cyclopentyl-1-((3,3-difluoro-1-methylcyclobutyl)methyl)-N-(2-(S-methylsulfonimidoyl)pyridin-4-yl)-4-(trifluoromethyl)-1H-pyrazole-5-carboxamide]
≤ 100 | CC1(Cn2nc(C34CC(C3)C4)c(C(F)(F)F)c2C(=O)Nc2ccnc(S(C)(=N)=O)c2)CC(F)(F)C1 (single isomer, unassigned) [Example 58b, 3-(Bicyclo[1.1.1]pentan-1-yl)-1-((3,3-difluoro-1-methylcyclobutyl)methyl)-N-(2-(S-methylsulfonimidoyl)pyridin-4-yl)-4-(trifluoromethyl)-1H-pyrazole-5-carboxamide]
≤ 100 | CC1(Cn2nc(C3(F)CC3)c(C(F)F)c2C(=O)Nc2ccc(F)c(S(C)(=N)=O)c2)CC(F)(F)C1 (single isomer, unassigned) [Example 133b, 1-((3,3-Difluoro-1-methylcyclobutyl)methyl)-4-(difluoromethyl)-N-(4-fluoro-3-(S-methylsulfonimidoyl)phenyl)-3-(1-fluorocyclopropyl)-1H-pyrazole-5-carboxamide]
≤ 100 | CS(=N)(=O)c1cc(NC(=O)c2c(C(F)(F)F)c(C3CC3)nn2CC2(F)CC3(CCC3)C2)ccn1 (single isomer, unassigned) [Example 21a, 3-cyclopropyl-1-((2-fluorospiro[3.3]heptan-2-yl)methyl)-N-(2-(S-methylsulfonimidoyl)pyridin-4-yl)-4-(trifluoromethyl)-1H-pyrazole-5-carboxamide]
≤ 100 | C[S@@](=N)(=O)c1cc(NC(=O)c2c(C(F)(F)F)c(C3CC3)nn2C[C@]2(C)C[C@H](C(F)(F)F)C2)ccn1 (single isomer, unassigned) [Example 86a, 3-cyclopropyl-1-(((trans)-1-methyl-3-(trifluoromethyl)cyclobutyl)methyl)-N-(2-(S-methylsulfonimidoyl)pyridin-4-yl)-4-(trifluoromethyl)-1H-pyrazole-5-carboxamide]
1000 to 10000 | CS(=N)(=O)c1cc(NC(=O)c2c(C(F)(F)F)c(C3CC3)nn2CC2CCC23CNC3)ccn1 (single isomer, unassigned) [Example 153b, 1-((2-Azaspiro[3.3]heptan-5-yl)methyl)-3-cyclopropyl-N-(2-(S-methylsulfonimidoyl)pyridin-4-yl)-4-(trifluoromethyl)-1H-pyrazole-5-carboxamide]
≤ 100 | CS(=N)(=O)c1cc(NC(=O)c2c(C(F)(F)F)c(C3CC3)nn2CC23CCC(F)(CC2)C3)ccn1 (single isomer, unassigned) [Example 106a, 3-cyclopropyl-1-((4-fluorobicyclo[2.2.1]heptan-1-yl)methyl)-N-(2-(S-methylsulfonimidoyl)pyridin-4-yl)-4-(trifluoromethyl)-1H-pyrazole-5-carboxamide]
≤ 100 | CC1(Cn2nc(C34CC(C3)C4)c(C(F)(F)F)c2C(=O)Nc2ccnc(S(C)(=N)=O)c2)CC(F)(F)C1 (single isomer, unassigned) [Example 58a, 3-(Bicyclo[1.1.1]pentan-1-yl)-1-((3,3-difluoro-1-methylcyclobutyl)methyl)-N-(2-(S-methylsulfonimidoyl)pyridin-4-yl)-4-(trifluoromethyl)-1H-pyrazole-5-carboxamide]
